Experimental data reported in patent US8791267B2, “Biaryl PDE4 inhibitors for treating inflammatory, cardiovascular and CNS disorders” (Decode Genetics EHF, priority 2007, dated 2014).
Structures can show the parent of a compound that is named as a salt.

Tests used:
PDE4B = PDE4B (Homo sapiens, UniProt Q07343); experiment: In-vitro assay for PDE4 enzymes, real-time enzyme-coupled spectrophotometric assay, PDE4B Activity (Table 10); assay type: biochemical; conditions: human PDE4B (hPDE4B), enzyme-coupled spectrophotometric assay; read-out: PDE4B Activity, hPDE4B
PDE4B, sequence (Q07343 whole entry): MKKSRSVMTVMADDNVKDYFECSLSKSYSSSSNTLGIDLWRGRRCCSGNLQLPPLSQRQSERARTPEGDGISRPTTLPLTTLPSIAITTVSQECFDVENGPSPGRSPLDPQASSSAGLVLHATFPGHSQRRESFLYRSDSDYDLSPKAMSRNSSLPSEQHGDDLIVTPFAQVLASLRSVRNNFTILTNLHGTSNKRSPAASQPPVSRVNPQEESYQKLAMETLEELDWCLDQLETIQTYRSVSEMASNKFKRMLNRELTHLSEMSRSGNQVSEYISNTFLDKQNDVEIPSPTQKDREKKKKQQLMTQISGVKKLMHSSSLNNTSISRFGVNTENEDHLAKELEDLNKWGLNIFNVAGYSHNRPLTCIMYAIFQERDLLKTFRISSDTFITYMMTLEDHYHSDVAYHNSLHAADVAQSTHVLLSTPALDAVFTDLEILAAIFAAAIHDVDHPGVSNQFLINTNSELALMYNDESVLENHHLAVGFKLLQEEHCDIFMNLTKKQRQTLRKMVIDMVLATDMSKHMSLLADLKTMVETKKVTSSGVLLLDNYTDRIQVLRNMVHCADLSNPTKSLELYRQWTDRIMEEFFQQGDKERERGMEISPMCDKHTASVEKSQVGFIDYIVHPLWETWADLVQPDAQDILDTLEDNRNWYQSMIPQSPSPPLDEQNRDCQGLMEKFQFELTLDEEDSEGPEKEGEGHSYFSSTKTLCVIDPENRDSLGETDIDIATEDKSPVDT

PDE4 = PDE4 (Homo sapiens, UniProt Q08499); experiment: In-vitro assay for PDE4 enzymes, real-time enzyme-coupled spectrophotometric assay (Table 9); assay type: biochemical; conditions: human PDE4D; activity class, Table 9; read-out: hPDE4D
PDE4, sequence (Q08499 whole entry): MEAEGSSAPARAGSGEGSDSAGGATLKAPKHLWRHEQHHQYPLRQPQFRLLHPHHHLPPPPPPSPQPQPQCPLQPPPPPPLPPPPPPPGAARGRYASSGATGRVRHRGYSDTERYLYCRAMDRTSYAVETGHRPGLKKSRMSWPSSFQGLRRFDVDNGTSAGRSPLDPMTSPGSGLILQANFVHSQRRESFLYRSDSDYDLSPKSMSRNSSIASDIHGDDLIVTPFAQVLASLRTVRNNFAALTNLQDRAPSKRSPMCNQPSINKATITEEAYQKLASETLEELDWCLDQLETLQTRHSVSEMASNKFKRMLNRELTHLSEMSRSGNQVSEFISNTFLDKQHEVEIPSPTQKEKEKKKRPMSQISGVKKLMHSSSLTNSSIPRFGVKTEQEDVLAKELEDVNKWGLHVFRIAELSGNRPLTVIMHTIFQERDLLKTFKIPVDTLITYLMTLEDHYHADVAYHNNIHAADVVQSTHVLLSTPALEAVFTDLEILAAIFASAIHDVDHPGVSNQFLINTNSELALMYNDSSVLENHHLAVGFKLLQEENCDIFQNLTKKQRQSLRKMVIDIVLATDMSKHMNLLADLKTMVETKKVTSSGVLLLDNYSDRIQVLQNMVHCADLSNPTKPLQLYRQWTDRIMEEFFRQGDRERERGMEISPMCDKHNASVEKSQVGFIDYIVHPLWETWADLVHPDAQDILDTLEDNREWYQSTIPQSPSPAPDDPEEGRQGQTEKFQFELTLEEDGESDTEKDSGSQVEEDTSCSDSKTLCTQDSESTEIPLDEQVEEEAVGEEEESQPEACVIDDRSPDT

Row | Compound | IC50 (PDE4B) [µM] | IC50 (PDE4) [µM]
1 | COc1ccc(Cc2ccc(CN3CCN(C)C3=O)nc2)c(F)c1-c1cccc(Cl)c1 [P-375, 1-[5-(3′-Chloro-2-fluoro-6-methoxy-biphenyl-3-ylmethyl)-pyridin-2-ylmethyl]-3-methyl-imidazolidin-2-one] | < 5 | < 5
2 | CCNC(=O)Nc1ccc(Cc2ccc(OC)c(-c3cccc(Cl)c3)n2)cn1 [P-386, 1-{5-[6-(3-chloro-phenyl)-5-methoxy-pyridin-2-ylmethyl]-pyridin-2-yl}-3-ethyl-urea hydrochloride] | < 5 | < 5
3 | COc1ccc(CN2CCOC2=O)cc1-c1cccc(C(F)(F)F)c1 [P-083] | 5 to 20 | 5 to 20
4 | COc1ccc(Cc2ccc(N3CCN(C(N)=O)CC3)nc2)c(F)c1-c1cccc(Cl)c1 [P-432] | < 5 | < 5
5 | COc1ccc(Cc2ccc(CN3CCOC3=O)nc2)c(F)c1-c1cccc(Cl)c1 [P-465, 3-[5-(3′-Chloro-2-fluoro-6-methoxy-biphenyl-3-ylmethyl)-pyridin-2-ylmethyl]-oxazolidin-2-one hydrochloride] | < 5 | < 5
6 | COc1ccc(COc2ccc(Cl)nc2)c(F)c1-c1cccc(Cl)c1 [P-585] | < 5 | < 5
7 | COc1ccc(Cc2ccncc2)cc1-c1ccc2nonc2c1 [P-011] | < 5 | < 5
8 | COc1ccc(Cc2ccc(N3CCNC3=O)nc2)c(F)c1-c1cccc(C(C)=O)c1 [P-361, 1-[5-(3′-Acetyl-2-fluoro-6-methoxy-biphenyl-3-ylmethyl)-pyridin-2-yl]-imidazolidin-2-one] | < 5 | < 5
9 | COc1ccc(COc2ccc([N+](=O)[O-])cc2)c(F)c1-c1cccc(Cl)c1 [P-575] | < 5 | 5 to 20
10 | COc1ccc(Cn2cccn2)cc1-c1cccc([N+](=O)[O-])c1 [P-077, 1-(6-Methoxy-3′-nitro-biphenyl-3-ylmethyl)-1H-pyrazole] | < 5 | < 5
11 | COc1ccc(Cn2cnnc2)cc1-c1cccc([N+](=O)[O-])c1 [P-066, 4-(6-Methoxy-3′-nitro-biphenyl-3-ylmethyl)-4H-[1,2,4]triazole] | < 5 | < 5
12 | COc1ccc(Cc2ccc(CN)cc2)c(F)c1-c1cccc([N+](=O)[O-])c1 [P-148] | < 5 | < 5
13 | COc1ccc(Cc2ccc(F)cc2)nc1-c1cccc([N+](=O)[O-])c1 [P-023, 6-(4-fluoro-benzyl)-3-methoxy-2-(3-nitro-phenyl)-pyridine] | 5 to 20 | < 5
14 | COc1ccc(COc2ccnc(Cl)c2)cc1-c1cccc(Cl)c1 [P-603] | < 5 | < 5
15 | COc1ccc(Cc2ccc(C(C)(C)O)nc2)cc1-c1cccc(Cl)c1 [P-605, 2-[5-(3′-chloro-6-methoxy-biphenyl-3-ylmethyl)-pyridin-2-yl]-propan-2-ol HCl salt] | < 5 | < 5
16 | COc1ccc(C(O)c2ccc(F)cc2)cc1-c1cccc(-c2nnco2)c1 (centres unmarked) [P-117, (4-Fluoro-phenyl)-(6-methoxy-3′-[1,3,4]oxadiazol-2-yl-biphenyl-3-yl)-methanol] | 21 to 40 | < 5
17 | COc1ccc(Cc2ccc(OCCN(C)C)nc2)c(F)c1-c1cccc(Cl)c1 [P-588, {2-[5-(3′-Chloro-2-fluoro-6-methoxy-biphenyl-3-ylmethyl)-pyridin-2-yloxy]-ethyl}-dimethyl-amine] | < 5 | < 5
18 | COc1ccc(Cc2ccc(N(C)C(N)=O)cc2)c(F)c1-c1cccc(C(C)=O)c1 [P-338, 1-[4-(3′-Acetyl-2-fluoro-6-methoxy-biphenyl-3-ylmethyl)-phenyl]-1-methyl-urea] | < 5 | < 5
19 | O=[N+]([O-])c1cccc(-c2cc(C(O)c3ccc(F)cc3)ccc2OC(F)(F)F)c1 (centres unmarked) [P-079, (4-Fluoro-phenyl)-(3′-nitro-6-trifluoromethoxy-biphenyl-3-yl)-methanol] | < 5 | < 5
20 | COc1ccc(Sc2ccc(N)cc2)cc1-c1cccc(Cl)c1 [P-447, 4-(3′-Chloro-6-methoxy-biphenyl-3-ylsulfanyl)-phenylaammonium chloride] | < 5 | < 5
21 | COc1ccc(Cc2ccc(N3CCNC3=O)nc2)c(F)c1-c1cccc(Cl)c1 [P-388, 1-[5-(3′-Chloro-2-fluoro-6-methoxy-biphenyl-3-ylmethyl)-pyridin-2-yl]-imidazolidin-2-one] | < 5 | < 5
22 | COc1ccc(Cc2ccc(CNC(=O)N3CCN(C)CC3)nc2)c(F)c1-c1cccc(Cl)c1 [P-373, 4-Methyl-piperazine-1-carboxylic acid [5-(3′-chloro-2-fluoro-6-methoxy-biphenyl-3-ylmethyl)-pyridin-2-ylmethyl]-amide] | 5 to 20 | < 5
23 | COc1ccc(Nc2ccc(N)cc2)cc1-c1cccc(C(C)=O)c1 [P-260, 1-[5′-(4-Amino-phenylamino)-2′-methoxy-biphenyl-3-yl]-ethanone hydrochloride] | 5 to 20 | < 5

Row | Compound | IC50 (PDE4B) [µM] | IC50 (PDE4) [µM]
24 | COc1ccc(Cc2ccc(N3CCC3C(N)=O)nc2)c(F)c1-c1cccc(Cl)c1 (centres unmarked) [P-571, 1-[5-(3′-chloro-2-fluoro-6-methoxy-biphenyl-3-ylmethyl)-pyridin-2-yl]-azetidine-2-carboxylic acid amide] | < 5 | < 5
25 | CCOC(=O)Nc1ccc(Cc2ccc(OC)c(-c3cccc(Cl)c3)c2F)cn1 [P-357] | < 5 | < 5
26 | CCNC(=O)Nc1ccc(Oc2ccc(OC)c(-c3cccc(C#N)c3)c2F)cn1 [P-440, 1-[5-(3′-Cyano-2-fluoro-6-methoxy-biphenyl-3-yloxy)-pyridin-2-yl]-3-ethyl-urea] | 5 to 20 | < 5
27 | COc1ccc(CN2CCCC2=O)cc1-c1cccc([N+](=O)[O-])c1 [P-029, 1-(6-Methoxy-3′-nitro-biphenyl-3-ylmethyl)-pyrrolidin-2-one] | < 5 | < 5
28 | COc1ccc(Cc2ccnn2C)cc1-c1ccc2c(c1)OC(F)(F)O2 [P-115, 5-[3-(2,2-Difluoro-benzo[1,3]dioxol-5-yl)-4-methoxy-benzyl]-1-methyl-1H-pyrazole] | < 5 | < 5
29 | O=[N+]([O-])c1cccc(-c2c(O)ccc(Cc3ccc(F)cc3)c2F)c1 [P-451] | < 5 | < 5
30 | COc1ccc(CN2CCCC2=O)cc1-c1cccc(-c2nnco2)c1 [P-186] | 21 to 40 | 20 to 40
31 | COc1ccc(CN2C[C@@H](O)CC2=O)cc1-c1cccc([N+](=O)[O-])c1 [P-248, (S)-4-Hydroxy-1-(6-methoxy-3′-nitro-biphenyl-3-ylmethyl)-pyrrolidin-2-one] | < 5 | < 5
32 | COc1ccc(Cc2cnc(O[C@@H]3CCN(C)C3)nc2)c(F)c1-c1cccc(Cl)c1 [P-406, 5-(3′-Chloro-2-fluoro-6-methoxy-biphenyl-3-ylmethyl)-2-((R)-1-methyl-pyrrolidin-3-yloxy)-pyrimidine] | < 5 | < 5
33 | COc1ccc(Cc2ccc(O)cc2)cc1-c1cccc([N+](=O)[O-])c1 [P-142] | < 5 | < 5
34 | COc1ccc(Sc2ccc(NC(N)=O)cc2)cc1-c1cccc(Cl)c1 [P-540, [4-(3′-Chloro-6-methoxy-biphenyl-3-ylsulfanyl)-phenyl]-urea] | < 5 | < 5
35 | COc1ccc(Cc2ccc(NS(C)(=O)=O)cc2)c(F)c1-c1cccc(Br)c1 [P-200] | < 5 | < 5
36 | COc1ccc(Cc2ccccc2CN)cc1-c1cccc([N+](=O)[O-])c1 [P-133] | 5 to 20 | 5 to 20
37 | COc1ccc(Cc2ccc(-n3cccn3)cc2)c(O)c1-c1cccc([N+](=O)[O-])c1 [P-173, 6-Methoxy-3′-nitro-3-(4-pyrazol-1-yl-benzyl)-biphenyl-2-ol] | < 5 | < 5
38 | COc1cccc(-c2cc(Cn3cncn3)ccc2OC)c1 [P-086, 1-(6,3′-Dimethoxy-biphenyl-3-ylmethyl)-1H-[1,2,4]triazole] | 5 to 20 | < 5
39 | COc1ccc(Cc2ccccc2O)cc1-c1cccc([N+](=O)[O-])c1 [P-105, 2-(6-Methoxy-3′-nitro-biphenyl-3-ylmethyl)-phenol] | < 5 | < 5
40 | COc1ccc(CN2CCOC2=O)cc1-c1cccc([N+](=O)[O-])c1 [P-076, 3-(6-Methoxy-3′-nitro-biphenyl-3-ylmethyl)-oxazolidin-2-one] | < 5 | < 5
41 | COc1ccc(CN2C(=O)c3ccccc3C2=O)cc1-c1cccc([N+](=O)[O-])c1 [P-042, 2-(6-Methoxy-3′-nitro-biphenyl-3-ylmethyl)-isoindole-1,3-dione] | 5 to 20 | < 5
42 | COc1ccc(CN2C(=O)C(=O)c3ccccc32)cc1-c1cccc([N+](=O)[O-])c1 [P-041, 1-(6-Methoxy-3′-nitro-biphenyl-3-ylmethyl)-1H-indole-2,3-dione] | < 5 | 5 to 20
43 | COc1ccc(Cn2ccnc2)cc1-c1ccc2c(c1)OCO2 [P-037, 1-(3-Benzo[1,3]dioxol-5-yl-4-methoxy-benzyl)-1H-imidazole] | < 5 | < 5
44 | COc1ccc(C(C)(O)c2ccc(NC(C)=O)cc2)c(F)c1-c1cccc(Cl)c1 (racemic) [P-530, N-{4-[1-(3′-Chloro-2-fluoro-6-methoxy-biphenyl-3-yl)-1-hydroxy-ethyl]-phenyl}-acetamide] | 21 to 40 | < 5
45 | CNc1ccc(Cc2ccc(OC)c(-c3cccc(C(C)=O)c3)c2F)cc1 [P-331, [4-(3′-Acetyl-2-fluoro-6-methoxy-biphenyl-3-ylmethyl)-phenyl]-methyl-amine hydrochloride] | < 5 | < 5
46 | CCOc1ccc(Cc2ccc(N)cc2)c(F)c1-c1cccc(C(C)=O)c1 [P-334, 1-[3′-(4-Amino-benzyl)-6′-ethoxy-2′-fluoro-biphenyl-3-yl]-ethanone; hydrochloride] | < 5 | < 5
